From patent US20050154042A1, “N-alkyl pyrroles as HMG-CoA reductase inhibitors” (priority 2003, published 2005)
Structures can show the parent of a compound that is named as a salt.

SMILES	melting point
CC(C)n1c(CC[C@@H](O)C[C@@H](O)CC(=O)O)c(-c2ccc(F)cc2)c(-c2ccc(F)cc2)c1C(=O)Nc1ccc(CC(N)=O)cc1 (as salt: sodium) [Example 13]	248 to 250 °C
COC(=O)c1ccc(NC(=O)c2c(-c3ccccc3)c(-c3ccc(F)cc3)c(CC[C@@H](O)C[C@@H](O)CC(=O)[O-])n2C(C)C)cc1.[Na+] [Example 116, (3R,5R)-4-{[5-(6-Carboxy-3,5-dihydroxy-hexyl)-4-(4-fluoro-phenyl)-1-isopropyl-3-phenyl-1H-pyrrole-2-carbonyl]-amino}-benzoic Acid Methyl Ester Sodium Salt]	188 to 191 °C (dec.)
CC(C)n1c(CC[C@@H](O)C[C@@H](O)CC(=O)[O-])c(-c2ccc(F)cc2)c(-c2ccc(F)cc2)c1C(=O)Nc1ccccn1.[Na+] [Example 120, (3R,5R)-7-[3,4-Bis-(4-fluoro-phenyl)-1-isopropyl-5-(pyridin-2-ylcarbamoyl)-1H-pyrrol-2-yl]-3,5-dihydroxy-heptanoic Acid Sodium Salt]	217 to 219 °C (dec.)
CC(C)n1c(CC[C@@H](O)C[C@@H](O)CC(=O)[O-])c(-c2ccc(F)cc2)c(-c2ccccc2)c1C(=O)N(c1ccccn1)c1ccccn1.[Na+] [Example 123, (3R,5R)-7-[5-(Di-pyridin-2-yl-carbamoyl)-3-(4-fluoro-phenyl)-1-isopropyl-4-phenyl-1H-pyrrol-2-yl]-3,5-dihydroxy-heptanoic Acid Sodium Salt]	223 to 225 °C (dec.)
CC(C)n1c(CC[C@@H](O)C[C@@H](O)CC(=O)[O-])c(-c2ccc(F)cc2)c(-c2ccc(F)cc2)c1C(=O)NCc1ccccn1.[Na+] [Example 69, (3R,5R)-7-{3,4-bis-(4-fluoro-phenyl)-1-isopropyl-5-[(pyridin-2-ylmethyl)-carbamoyl]-1H-pyrrol-2-yl}-3,5-dihydroxy-heptanoate Sodium Salt]	200 to 205 °C
Cc1cnc(CNC(=O)c2c(-c3ccccc3)c(-c3ccc(F)cc3)c(CC[C@@H](O)C[C@@H](O)CC(=O)O)n2C(C)C)cn1 (as salt: sodium) [Example 97, (3R,5R)-7-[3-(4-Fluorophenyl)-1-isopropyl-5-[(5-methylpyrazin-2-ylmethyl)carbamoyl]-4-phenyl-1H-pyrrol-2-yl]-3,5-dihydroxyheptanoic Acid Sodium Salt]	184 to 188 °C
CC(C)n1c(CCC(O)C[C@@H](O)CC(=O)O)c(-c2ccc(F)cc2)c(-c2ccccc2)c1C(=O)Nc1ccc(F)cc1 (stereo partly drawn) (as salt: sodium) [Example 8, (3R)-7-[3-(4-Fluoro-phenyl)-5-(4-fluoro-phenylcarbamoyl)-1-isopropyl-4-phenyl-1H-pyrrol-2-yl]-3,5-dihydroxy-heptanoic Acid Sodium Salt]	240 to 242 °C
CC(C)n1c(C=C[C@H](O)C[C@@H](O)CC(=O)[O-])c(-c2ccc(F)cc2)c(-c2ccc(F)cc2)c1C(=O)Nc1ccc(CS(C)(=O)=O)cc1.[Na+] [Example 106, (3R,5R)-7-[3,4-Bis-(4-fluoro-phenyl)-1-isopropyl-5-(4-methanesulfonylmethyl-phenyl-carbamoyl)-1H-pyrrol-2-yl]-3,5-dihydroxy-hept-6-enoic Acid, Sodium Salt]	256 °C (dec.)
COC(=O)c1ccc(NC(=O)c2c(-c3ccc(F)cc3)c(-c3ccc(F)cc3)c(CC[C@@H](O)C[C@@H](O)CC(=O)[O-])n2C(C)C)nc1.[Na+] [Example 121, (3R,5R)-6-{[5-(6-Carboxy-3,5-dihydroxy-hexyl)-3,4-bis-(4-fluoro-phenyl)-1-isopropyl-1H-pyrrole-2-carbonyl]-amino}-nicotinic Acid Methyl Ester Sodium Salt]	178 to 181 °C (dec.)
CC(C)n1c(CC[C@@H](O)C[C@@H](O)CC(=O)O)c(-c2ccc(F)cc2)c(-c2ccccc2)c1C(=O)NCc1nc2ccccc2[nH]1 (as salt: sodium) [Example 92]	234 to 236 °C (dec.)
COc1cccc(NC(=O)c2c(-c3ccc(F)cc3)c(-c3ccc(F)cc3)c(/C=C/[C@@H](O)C[C@@H](O)CC(=O)[O-])n2C(C)C)c1.[Na+] [Example 137, (3R,5 S)-7-[3,4-Bis-(4-fluoro-phenyl)-1-isopropyl-5-(3-methoxy-phenylcarbamoyl)-1H-pyrrol-2-yl]-3,5-dihydroxy-hept-6-enoic Acid Sodium Salt]	225 to 227 °C
CC(C)n1c(CC[C@@H](O)C[C@@H](O)CC(=O)O)c(-c2ccc(F)cc2)c(-c2ccccc2)c1C(=O)NCc1ccc(F)cc1 (as salt: sodium) [Example 9, (3R,5R)-7-[5-(4-Fluoro-benzylcarbamoyl)-3-(4-fluoro-phenyl)-1-isopropyl-4-phenyl-1H-pyrrol-2-yl]-3,5-dihydroxy-heptanoic Acid Sodium Salt]	218 to 220 °C
Cc1cc(CNC(=O)c2c(-c3ccccc3)c(-c3ccc(F)cc3)c(/C=C/[C@@H](O)C[C@@H](O)CC(=O)[O-])n2C(C)C)no1.[Na+] [Example 79, trans-(3R,5 S)-7-{3-(4-fluoro-phenyl)-1-isopropyl-5-[(5-methyl-isoxazole-3-yl Methyl)-carbamoyl]-4-phenyl-1H-pyrrol-2-yl}-3,5-dihydroxy-hept-6-enoate Sodium Salt]	200 to 203 °C
CC(C)n1c(CC[C@@H](O)C[C@@H](O)CC(=O)[O-])c(-c2ccc(F)cc2)c(-c2ccc(F)cc2)c1C(=O)Nc1ccc(OCc2ccccc2)cc1.[Na+] [Example 127]	215 to 217 °C
CC(C)n1c(CC[C@@H](O)C[C@@H](O)CC(=O)[O-])c(-c2ccc(F)cc2)c(-c2ccccc2)c1C(=O)NCCc1ccccc1.[Na+] [Example 91, (3R,5R)-7-[3-(4-Fluorophenyl)-1-isopropyl-5-(phenethylcarbamoyl)-4-phenyl-1H-pyrrol-2-yl]-3,5-dihydroxyheptanoic Acid Sodium Salt]	197 to 200 °C
CC(C)n1c(CC[C@@H](O)C[C@@H](O)CC(=O)[O-])c(-c2ccc(F)cc2)c(-c2ccc(F)cc2)c1C(=O)Nc1ccc(O)cc1.[Na+] [Example 133, (3R,5R)-7-[3,4-Bis-(4-fluoro-phenyl)-5-(4-hydroxy-phenylcarbamoyl)-1-isopropyl-1H-pyrrol-2-yl]-3,5-dihydroxy-heptanoic Acid Sodium Salt]	228 to 230 °C

Further lines, results first:

melting point	SMILES
197 to 199 °C	CC(C)n1c(CC[C@@H](O)C[C@@H](O)CC(=O)[O-])c(-c2ccc(F)cc2)c(-c2ccccc2)c1C(=O)Nc1cccc(C#N)c1.[Na+] [Example 142, (3R,5R)-7-[5-(3-Cyano-phenylcarbamoyl)-3-(4-fluoro-phenyl)-1-isopropyl-4-phenyl-1H-pyrrol-2-yl]-3,5-dihydroxy-heptanoic Acid Sodium Salt]
298 to 300 °C	CC(C)n1c(CC[C@@H](O)C[C@@H](O)CC(=O)[O-])c(-c2ccc(F)cc2)c(-c2ccc(F)cc2)c1C(=O)NCc1ccc(C(=O)[O-])cc1.[Na+].[Na+] [Example 162, (3R,5R)-4-({[5-(6-Carboxy-3,5-dihydroxy-hexyl)-3,4-bis-(4-fluoro-phenyl)-1-isopropyl-1H-pyrrole-2-carbonyl]-amino}-methyl)-benzoic Acid Disodium Salt]
240 to 245 °C	CC(C)n1c(CC[C@@H](O)C[C@@H](O)CC(=O)[O-])c(-c2ccc(F)cc2)c(-c2ccccc2)c1C(=O)NCc1cccc(C(=O)[O-])c1.[Na+].[Na+] [Example 163, (3R,5R)-3-({[5-(6-Carboxy-3,5-dihydroxy-hexyl)-4-(4-fluoro-phenyl)-1-isopropyl-3-phenyl-1H-pyrrole-2-carbonyl]-amino}-methyl)-benzoic Acid Disodium Salt]
203 to 205 °C	CCNC(=O)c1c(-c2ccccc2)c(-c2ccc(F)cc2)c(CC[C@@H](O)C[C@@H](O)CC(=O)[O-])n1C(C)C.[Na+] [Example 158, (3R,5R)-7-[5-Ethylcarbamoyl-3-(4-fluoro-phenyl)-1-isopropyl-4-phenyl-1H-pyrrol-2-yl]-3,5-dihydroxy-heptanoic Acid Sodium Salt]
229 to 230 °C	CC(C)n1c(/C=C/[C@@H](O)C[C@@H](O)CC(=O)[O-])c(-c2ccc(F)cc2)c(-c2ccc(F)cc2)c1C(=O)Nc1cccc(Cl)c1.[Na+] [Example 139, (3R,5S)-7-[5-(3-Chloro-phenylcarbamoyl)-3,4-bis-(4-fluoro-phenyl)-1-isopropyl-1H-pyrrol-2-yl]-3,5-dihydroxy-hept-6-enoic Acid Sodium Salt]
178 to 180 °C	CC(C)n1c(CC[C@@H](O)C[C@@H](O)CC(=O)[O-])c(-c2ccc(F)cc2)c(-c2ccccc2)c1C(=O)NCc1ccc(C#N)cc1.[Na+] [Example 144, (3R,5R)-7-[5-(4-Cyano-benzylcarbamoyl)-3-(4-fluoro-phenyl)-1-isopropyl-4-phenyl-1H-pyrrol-2-yl]-3,5-dihydroxy-heptanoic Acid Sodium Salt]
229 to 230 °C	CCc1cccc(NC(=O)c2c(-c3ccc(F)cc3)c(-c3ccc(F)cc3)c(/C=C/[C@@H](O)C[C@@H](O)CC(=O)[O-])n2C(C)C)c1.[Na+] [Example 141, (3R,5S)-7-[5-(3-Ethyl-phenylcarbamoyl)-3,4-bis-(4-fluoro-phenyl)-1-isopropyl-1H-pyrrol-2-yl]-3,5-dihydroxy-hept-6-enoic Acid Sodium Salt]
191 to 194 °C	CC(C)n1c(CC[C@@H](O)C[C@@H](O)CC(=O)[O-])c(-c2ccc(F)cc2)c(-c2ccc(F)cc2)c1C(=O)Nc1cccc(Cl)c1.[Na+] [Example 138, (3R,5R)-7-[5-(3-Chloro-phenylcarbamoyl)-3,4-bis-(4-fluoro-phenyl)-1-isopropyl-1H-pyrrol-2-yl]-3,5-dihydroxy-heptanoic Acid Sodium Salt]
238 to 240 °C	CC(C)n1c(/C=C/[C@@H](O)C[C@@H](O)CC(=O)[O-])c(-c2ccc(F)cc2)c(-c2ccccc2)c1C(N)=O.[Na+] [Example 160, (3R,5S)-7-[5-Carbamoyl-3-(4-fluoro-phenyl)-1-isopropyl-4-phenyl-1H-pyrrol-2-yl]-3,5-dihydroxy-hept-6-enoic Acid Sodium Salt]
